Results taken from US20030100540A1, “Identification of NSAID-regulated genes” (Vanderbilt University, priority 2001, published 2003).
Entries after “also recorded” stand apart in the source; their conditions may differ.

How the values were obtained:
[1] = system: HCA-7 cells; experiment: HCA-7 cell growth following treatment; type: cell-based; details: following treatment with NS-398
[2] = system: angiogenesis; details: cited from earlier work
[3] = system: NNK-induced lung cancer; details: NNK-induced lung cancer model; cited from earlier work
[4] = system: AOM induced colon carcinogenesis; details: AOM induced colon carcinogenesis rat model; cited from earlier work
[5] = system: HCA-7 cells; experiment: Differential gene expression after NS-398 treatment (SSH, differential screening, Northern blotting); type: cell-based
Experimental: Cell culture. The HCA-7 cells, which are derived from a rectal carcinoma, were kindly provided by Dr. Susan Kirkland (ICRF, London, UK). Cells were cultured at 37° C. with 5% CO2 in McCoy's 5A medium containing penicillin, streptomycin, 10% FBS (Life Technologies, Inc., Grand Island, N.Y.). NS-398 and nimesulide (Cayman chemicals, Ann Arbor, Mich.), sulindac sulfide (Merck & Co., Rahway, N.J.) and SC-58125 (G.D. Searle Co., St. Louis, Mo.) were dissolved in DMSO prior to addition to cell culture medium. Experimental controls were treated with 0.1% DMSO.
mRNA isolation. Total cellular RNA was isolated using Tri-Reagent (Molecular Research Center, Inc., Cincinnati, Ohio) and polyadenylated RNA was isolated using a mRNA Purification Kit (Amersham Pharmacia Biotech, Inc., Piscataway, N.J.).
Suppression subtractive hybridization. SSH was performed with the PCR-Select™ cDNA Subtraction Kit (Clontech Laboratories Inc., Palo Alto, Calif.) as described by the manufacturer except for slight modifications of the PCR and hybridization conditions. Starting material consisted of 2 μg of mRNA from NS-398 treated HCA-7 cells and 2 μg of mRNA from control cells. After synthesis of the first and second cDNA strands, the cDNA was digested with Rsa I to obtain shorter, blunt-ended molecules. Then ligation of two different adapters to the cDNA fragments was performed separately. The adapter sequences were as follows: 5′-[…]-3′ (adapter 1-SEQ ID NO: 52) and 5′-[…]-3′ (adapter 2R-SEQ ID NO: 53). For the first round hybridization, the mixture of driver and tester cDNA were denatured at 98° C. for 1.5 min and then maintained at 68° C. for ˜10 h. For the second round hybridization, driver cDNA was denatured at 98° C. for 1.5 min and then added to the mixture of the two previous hybridization and allowed to incubate at 68° C. for ˜18 h.
After two rounds of hybridization, two rounds of PCR were performed to amplify the specific, differentially expressed cDNA fragments. All PCR reactions were performed using a PTC-100 thermal cycler (MJ Research, Inc. Watertown, Mass.). The primer used in first round is 5′-[…]-3′ (primer 1-SEQ ID NO: 54) and the primers used in second round were 5′-[…]-3′ (nested primer 1-SEQ ID NO: 55) and 5′-[…]-3′ (nested primer 2R -SEQ ID NO: 56). Cycling parameters are as follows: for the first round, 27 cycles of 94° C. for 30 s, 64° C. for 30 s and 71° C. for 1.5 min; for the second round, 15 cycles of 94° C. for 30 s, 68° C. for 30 s and 72° C. for 1.5 min.
To evaluate subtractive efficiency, the same amount of subtracted and unsubtracted secondary PCR products were applied as templates, and GAPDH primers were used to perform PCR. The PCR products were examined in a 2.0% agarose/EtBr gel to detect the abundance of GAPDH. After evaluation of the subtractive efficiency, the subtracted PCR products were cloned directly into the pCR2.1-TOPO vector (InVitrogen, Carlsbad, Calif.). Plates were incubated at 37° C. until small clones were visible and the blue/white staining could be clearly distinguished.
Differential screening. Differential screening was performed by using the PCR-Select™ Differential Screening Kit (Clontech) according to the users manual. After picking the recombinant clones from the subtractive library and identifying them by restriction digestion, the insert was PCR amplified in 20 μl volume reactions using nested PCR primer 1 and 2R. After amplification, 5 μl of the PCR product was denatured with 5 μl of 0.6 N NaOH and then 1.5 μl of each mixture was transferred to a nylon membrane. Each cDNA fragment was arrayed in duplicate in each blot and two identical blots were prepared for hybridization with different probes. The total secondary PCR amplified products from the forward and reverse SSH were used as probes. After washing, the membranes were exposed overnight to Kodak BioMax MR x-ray film (Eastman Kodak Company, Rochester, N.Y.) with and intensifying screen at −70° C.
Northern blotting. […]

[6] = system: prostate carcinoma cells; details: cited from earlier work
[7] = system: human colon carcinoma cells; details: cited from earlier work
[8] = system: different types of cancer cell lines; details: cited from earlier work
[9] = cited from earlier work
[10] = cited from earlier work; remark: listed apart in the source
[11] = 100 μM NS-398 for 4 days, down = decreased levels following treatment, -fold decrease
[12] = 100 μM NS-398 for 4 days, up = increased levels following treatment, -fold increase

## CS(=O)(=O)Nc1ccc([N+](=O)[O-])cc1OC1CCCCC1 [NS-398]
[1]
  Inhibition of HCA-7 cell growth: significant inhibition
[2]
  Anti-angiogenic effects: anti-angiogenic effects
[3]
  Chemopreventive effects: chemopreventive effects
[4]
  Chemopreventive effects: chemopreventive effects
[5]; [11]
  Regulation by NS-398: Cyclin K (AF060515): down (2.1) fold
  Regulation by NS-398: KIAA0101 (D14657): down (2.7) fold
  Regulation by NS-398: Proliferation associated p100 protein (AF098158): down (2.2) fold
[5]; [12]
  Regulation by NS-398: Dynamin 2 (NM_004945): up (3.1) fold
  Regulation by NS-398: ENH, LIM protein (similar to rat protein kinase C-binding enigma) (NM_006457): up (3.0) fold
  Regulation by NS-398: FAT tumor suppressor (Drosophila) homolog (NM_005245): up (4.4) fold
  Regulation by NS-398: LIP.1 (LAR-interacting protein 1b) (U22816): up (3.4) fold
  Regulation by NS-398: PCDH7 (BH-Pcdh) (AB06757): up (26.0) fold
  Regulation by NS-398: Pdcd4 (Programmed cell death) (NM_011050): up (1.5) fold
[5]; gene named in the value
  Regulation of named genes by NS-398, stated in words: genes that were down-regulated by NS-398, one was designated as NRG-1; also recorded: Cyclin K was found to be down-regulated; also recorded: Pdcd4, Dynamin 2 and LIP.1 are all up-regulated; also recorded: ENH is a LIM protein whose levels are increased
[6]
  Induction of apoptosis: induce apoptosis
[7]
  Induction of apoptosis: induce apoptosis
[8]
  Effect on tumor growth: suppress tumor growth

## CC1=C(CC(=O)O)c2cc(F)ccc2/C1=C\c1ccc([S+](C)[O-])cc1 (stereo not drawn) [sulindac, (Z)-5-Fluoro-2-methyl-1-((4(methylsulfinyl)phenyl)methylene) 1H-indene-3-acetic acid]
[9]
  Drug absorbed after oral administration: about 90%
[9]; fasting patients, oral
  Time to peak plasma levels: about 2 hours
[10]; abdominal pain and nausea most frequent
  Mild gastrointestinal effects, share of patients: ~20%
[10]; human, in vivo
  Skin rash and pruritus, share of patients: 5%
